The values below are quoted from earlier work in patent US20220218650A1, “COMPOSITION AND METHOD FOR TREATING PAIN” (Zelira Therapeutics Operations Pty Ltd, priority 2018, published 2022).

The conditions of the series: treatment group (5 mg THC); control group 74 mg; difference not statistically significant (n=105).

Take `CCCCCc1cc(O)c2c(c1)OC(C)(C)[C@@H]1CCC(C)=C[C@@H]21` [dronabinol]: the “Median dose of micro-opioid agonist piritramide in the two days post surgery” value was 54 mg.
